# Results as given in ChEMBL document CHEMBL1201862, “PubChem BioAssay data set” (2004).
# Activity calls are given as the source filed them. For most assays here, no stated cut-off is given here; in the data, actives have a measured EC50 and inactives only a lower limit.
# Experiments:
# [1] = target: T1, Corticotropin-releasing factor receptor 2/Corticotropin-releasing factor-binding protein (Homo sapiens, UniProt P24387+Q13324); experiment: activators of CRF receptor 2 with binding protein – uHTS hits, confirmation (AID 602473); type: functional; settings: read-out: EC50_Mean
# T1 sequence (Q13324 whole entry): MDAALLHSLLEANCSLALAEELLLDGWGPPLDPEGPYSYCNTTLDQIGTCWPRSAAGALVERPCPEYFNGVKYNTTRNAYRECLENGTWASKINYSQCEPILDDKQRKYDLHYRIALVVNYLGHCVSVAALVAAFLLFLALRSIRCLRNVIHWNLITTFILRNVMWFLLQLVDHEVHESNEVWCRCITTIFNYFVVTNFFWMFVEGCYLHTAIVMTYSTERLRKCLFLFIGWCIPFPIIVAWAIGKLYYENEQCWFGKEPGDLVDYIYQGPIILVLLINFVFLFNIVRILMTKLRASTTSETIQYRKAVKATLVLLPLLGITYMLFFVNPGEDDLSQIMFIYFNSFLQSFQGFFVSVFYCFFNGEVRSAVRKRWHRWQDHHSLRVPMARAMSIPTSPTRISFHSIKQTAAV
# T1 sequence (P24387 whole entry): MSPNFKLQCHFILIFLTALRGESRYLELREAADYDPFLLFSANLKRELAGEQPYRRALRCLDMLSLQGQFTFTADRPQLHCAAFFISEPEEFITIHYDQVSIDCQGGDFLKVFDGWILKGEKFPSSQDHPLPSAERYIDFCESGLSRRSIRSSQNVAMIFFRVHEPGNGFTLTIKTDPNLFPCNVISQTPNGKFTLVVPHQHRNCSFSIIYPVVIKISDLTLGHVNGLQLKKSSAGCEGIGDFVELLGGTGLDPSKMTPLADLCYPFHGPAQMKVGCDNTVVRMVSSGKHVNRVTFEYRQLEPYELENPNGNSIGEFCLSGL
# [2] = CRF-BP/CRF-R2 complex antagonists, dose response, cell-based, uHTS hits, 384-well (AID 651639); type: functional, Homo sapiens; settings: read-out: IC50_Mean
# [3] = target: T1, Corticotropin-releasing factor receptor 2/Corticotropin-releasing factor-binding protein; experiment: Dose Response confirmation of uHTS hits for small molecule antagonists of the CRF-binding protein and CRF-R2 receptor complex.; type: functional; settings: read-out: IC50_Mean
# [4] = target: Heat shock protein HSP 90-alpha (Homo sapiens, UniProt P07900); type: functional, organism-based
# Nonstructural protein 1 = Nonstructural protein 1 (Influenza A virus, UniProt Q194T2); type: functional, Influenza A virus (A/California/07/2009(H1N1))
# Sequence of Nonstructural protein 1 (Q194T2 whole entry): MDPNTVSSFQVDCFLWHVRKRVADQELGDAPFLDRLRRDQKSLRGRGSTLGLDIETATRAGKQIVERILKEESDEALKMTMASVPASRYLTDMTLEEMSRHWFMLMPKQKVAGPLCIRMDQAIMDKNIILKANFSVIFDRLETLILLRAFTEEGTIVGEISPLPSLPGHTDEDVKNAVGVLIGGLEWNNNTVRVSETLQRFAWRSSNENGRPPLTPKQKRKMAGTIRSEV
# Genome polyprotein = Genome polyprotein (dengue virus type 2, UniProt P29990); experiment: Dengue-2 NS5 methyltransferase inhibitors, primary screen, biochemical, confirmation dose response (AID 588689); type: functional
# Sequence of Genome polyprotein (P29990 2492-3391 limits assumed): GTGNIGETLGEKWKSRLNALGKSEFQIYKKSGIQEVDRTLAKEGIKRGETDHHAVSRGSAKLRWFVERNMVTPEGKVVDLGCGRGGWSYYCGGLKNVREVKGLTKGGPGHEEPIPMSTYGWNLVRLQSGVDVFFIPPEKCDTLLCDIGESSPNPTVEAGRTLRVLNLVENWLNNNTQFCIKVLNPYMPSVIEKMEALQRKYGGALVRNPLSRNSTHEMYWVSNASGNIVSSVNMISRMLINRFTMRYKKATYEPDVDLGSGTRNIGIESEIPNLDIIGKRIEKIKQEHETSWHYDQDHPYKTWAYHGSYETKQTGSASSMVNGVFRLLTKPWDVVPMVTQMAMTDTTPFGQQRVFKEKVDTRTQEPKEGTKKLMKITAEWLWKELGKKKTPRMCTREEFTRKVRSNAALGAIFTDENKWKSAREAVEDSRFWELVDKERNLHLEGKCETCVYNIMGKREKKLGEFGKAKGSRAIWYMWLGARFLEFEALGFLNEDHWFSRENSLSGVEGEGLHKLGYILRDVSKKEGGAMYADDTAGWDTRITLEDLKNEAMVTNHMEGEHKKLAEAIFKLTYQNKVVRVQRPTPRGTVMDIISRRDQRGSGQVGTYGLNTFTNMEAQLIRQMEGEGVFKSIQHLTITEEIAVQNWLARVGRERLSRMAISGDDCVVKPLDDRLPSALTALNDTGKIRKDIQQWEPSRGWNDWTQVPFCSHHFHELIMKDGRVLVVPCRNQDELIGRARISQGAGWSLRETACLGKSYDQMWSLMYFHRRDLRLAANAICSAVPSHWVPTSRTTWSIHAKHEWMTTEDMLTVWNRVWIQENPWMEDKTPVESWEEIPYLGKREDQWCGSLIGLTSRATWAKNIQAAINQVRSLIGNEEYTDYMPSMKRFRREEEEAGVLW
# cells [5] = type: functional, cell-based
# [6] = inhibitors of Vif binding to APOBEC3G peptide, primary screen, biochemical, TR-FRET, GST-Vif 1-94, biotin-A3G peptide, dose response retest (AID 1117319); type: functional;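 further: TR-FRET signal of purified GST-Vif binding a biotinylated A3G peptide; inhibitors lower the FRET signal by blocking Vif and A3G binding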
# cells [7] = type: functional, cell-based; remark: listed apart in the source
# [8] = cytotoxicity in KRAS-transformed pancreatic duct cells, primary screen, cell-based, fluorescence, HTS (AID 431); type: functional; settings: Homo sapiens;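 further: cell line used: HPDE-C7K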
# [9] = cytotoxicity in HPDE-C7 cells, cell-based, fluorescence, HTS (AID 430); type: functional; settings: Homo sapiens
# [10] = target: T2, Zinc finger protein mex-5 (Caenorhabditis elegans, UniProt Q9XUB2); experiment: MEX-5/TCR-2 RNA interaction inhibitors, dose response, biochemical, C. elegans, fluorescence polarization (AID 1960)
# T2 sequence (Q9XUB2 whole entry): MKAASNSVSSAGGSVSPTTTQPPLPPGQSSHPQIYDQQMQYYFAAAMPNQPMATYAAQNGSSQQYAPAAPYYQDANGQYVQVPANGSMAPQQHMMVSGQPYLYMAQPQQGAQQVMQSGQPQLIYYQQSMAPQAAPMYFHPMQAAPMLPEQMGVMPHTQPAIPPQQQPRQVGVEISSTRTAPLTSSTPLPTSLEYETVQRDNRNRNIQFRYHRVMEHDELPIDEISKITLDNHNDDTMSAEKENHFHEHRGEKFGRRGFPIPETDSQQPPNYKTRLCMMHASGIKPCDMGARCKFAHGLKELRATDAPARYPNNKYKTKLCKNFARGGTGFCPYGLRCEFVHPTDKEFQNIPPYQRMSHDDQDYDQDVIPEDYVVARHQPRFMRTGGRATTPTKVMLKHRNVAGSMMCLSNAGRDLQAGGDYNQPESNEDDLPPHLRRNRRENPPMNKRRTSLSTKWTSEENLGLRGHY
# [11] = target: T3, RNA-binding protein pos-1 (Caenorhabditis elegans, UniProt G5EF15); experiment: inhibitors of POS-1/mex-3 RNA binding, dose response, biochemical, fluorescence polarization (AID 1964);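 further: purified POS-1 fused to maltose binding protein made in E. coli; potency of compounds blocking POS-1 binding to fluorescent RNA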
# T3 sequence (G5EF15 whole entry): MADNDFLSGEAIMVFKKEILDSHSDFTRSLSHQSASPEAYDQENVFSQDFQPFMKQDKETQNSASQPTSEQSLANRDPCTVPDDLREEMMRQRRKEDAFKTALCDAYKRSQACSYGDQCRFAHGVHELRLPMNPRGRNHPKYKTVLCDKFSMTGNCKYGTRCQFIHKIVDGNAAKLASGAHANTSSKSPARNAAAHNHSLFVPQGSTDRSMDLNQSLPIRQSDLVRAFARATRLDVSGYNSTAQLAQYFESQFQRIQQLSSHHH
# H4 = experiment: Luminescence Cell-Based Dose Response HTS to Identify Activators of 5'UTR Stem-Loop Driven Prion Protein mRNA Translation in H4 Neuroglioblastoma Cells. [Related pubchem assays: 1829 (Project Summary), 1814 (Primary HTS)]; type: functional; settings: Homo sapiens
# [12] = Luminescence Cell-Based Dose Confirmation to Identify Activators of 5'UTR Stem-Loop Driven Alpha-Synuclein mRNA Translation in H4 Neuroglioblastoma Cells. [Related pubchem assays: 1829 (Project Summary), 1814 (Primary HTS)]; type: functional
# [13] = Luminescence Cell-Based Dose Response to Identify Activators of 5'UTR Stem-Loop Driven Prion Protein mRNA Translation in H4-C Neuroglioblastoma Cells. [Related pubchem assays: 1829 (Project Summary), 1814 (Primary HTS)]; type: functional
# [14] = Luminescence Cell-Based Dose Response to Identify Activators of Luciferase Translation or Activity in H4-C Neuroglioblastoma Cells. [Related pubchem assays: 1829 (Project Summary), 1814 (Primary HTS)]; type: functional
# [15] = Luminescence Cell-Based Dose Response HTS to Identify Activators of Luciferase Translation or Activity in H4 […] Cells. [Related pubchem assays: 1829 (Project Summary), 1814 (Primary HTS)]; type: functional
smiles,measurement,setting,value
Cc1cs/c(=N\c2ccccc2)n1Cc1ccco1,EC50,[1],> 53 µM (inactive)
same,IC50,[2],> 20 µM (inactive)
same,IC50,[3],38.4 µM (active)
CC(=NNC(=S)N(Cc1ccccn1)Cc1ccccn1)c1cnccn1,AC50,[4],3.3 µM (active)
same,IC50,Nonstructural protein 1,1.18 µM (active)
Cc1ccc(-n2nnnc2SCc2nnc(-c3ccccc3Br)o2)cc1,EC50,[1],> 53 µM (inactive)
same,IC50,[2],3.85 µM (active)
same,IC50,[3],11 µM (active)
C#CCOc1ccc(/C=C2/C(=O)N(c3ccc(S(N)(=O)=O)cc3)N=C2C)cc1OC,IC50,Genome polyprotein,> 100 µM (active)
Cc1nc2nc(-c3ccco3)nn2c(C)c1Cl,EC50,cells [5],> 350 µM (not active)
same,IC50,[6],> 100 µM (active)
same,EC50,cells [7],> 350 µM (not active)
O=C1c2n[nH]c(-c3ccccc3O)c2C(c2ccc(F)cc2)N1Cc1ccco1 (stereo unspecified),EC50,[8],18.7 µM (active)
same,EC50,[9],16.9 µM (active)
COc1ccc(/C=c2\sc3nc(=O)c(C)nn3c2=O)c(OC)c1,IC50,Genome polyprotein,22.1 µM (active)
same,EC50,[10],88 µM (active)
same,EC50,[11],> 300 µM (not active)
COC(=O)CSc1nc(-c2cccs2)ccc1C#N,EC50,H4,0.261 µM (active)
same,EC50,[12],0.219 µM (active)
same,EC50,[13],0.307 µM (active)
same,EC50,[14],0.179 µM (active)
same,EC50,[15],< 0.1 µM (active)
Oc1c(C(c2ccccc2)N2CCOCC2)ccc2ccccc12 (stereo unspecified),AC50,[4],7.26 µM (active)
N#C/C(=C\c1cccs1)Sc1nc2ccccc2s1,EC50,[8],16.3 µM (active)
same,EC50,[9],17.3 µM (active)
COc1cc(NC(=O)CSc2ncnc3sc4c(c23)CCC(C)C4)c(C(=O)O)cc1OC (stereo unspecified),IC50,Genome polyprotein,86 µM (active)
